Reference: patent US11992494B2, “Cyclopentathiophene carboxamide derivatives as platelet activating factor receptor antagonists” (Boehringer Ingelheim International GmbH, priority 2021, dated 2024)

These compounds were tested against PAFR (Homo sapiens, UniProt P25105) (assay: cellular HTRF IP1 assay: inhibition of PAFR activation by PAF C-16 ligand (endpoint assay)). Details: HEK293 cells overexpressing human PAFR; PAF ligand 11 nM; Table 2.
Format: cell-based
Parameters: expressed in transfected cells; host or cells: HEK293
Procedure: The ability of compounds of formula (I) to inhibit the activation of the PAF receptor (PAFR) by the PAF C-16 ligand (PAF) is determined using the following cellular HTRF IP1 assay (IP1 Gq assay kit from Cisbio, Cat. no.: 62IP1APEJ) in assay buffer (1×HBSS, 20 mM Hepes, pH 7.4, 50 mM LiCl and containing 0.1% (w/v) BSA):
Evaluation of the Inhibition of PAFR Activation Using an Endpoint Assay
HEK293 cells overexpressing human PAFR (produced in-house) are seeded into a Poly-D-Lysine coated 384 well white cell culture microtiter assay plate with lid (15.000 cells per well). Subsequently, the plates are incubated over night at 37° C./5% CO2. On the next day, cells are being washed and subsequently, various concentrations of the test compounds (compounds in 100% DMSO; final concentration of DMSO in wells is 1%) are added to the assay plate via Echo 555 acoustic liquid handler. Plates are then incubated with lid for 90 minutes at 37° C./5% CO2. Thereafter, PAF ligand (Cayman Chemical Company, Item no.: 60900) is added at a final concentration of 11 nM. Plates are then incubated with lid for 60 minutes at 37° C./5% CO2. Then, 5 μl per well of Anti-IP1-Antibody-Cryptate solution and 5 μl per well of IP1-d2 solution are added to all wells of the plate and the plate is incubated for another 60 minutes light protected at room temperature. The emissions at 620 nm and 665 nm (Excitation wavelength: 320 nm) are measured using an Envision Reader (PerkinElmer).

PAFR, sequence (P25105 whole entry): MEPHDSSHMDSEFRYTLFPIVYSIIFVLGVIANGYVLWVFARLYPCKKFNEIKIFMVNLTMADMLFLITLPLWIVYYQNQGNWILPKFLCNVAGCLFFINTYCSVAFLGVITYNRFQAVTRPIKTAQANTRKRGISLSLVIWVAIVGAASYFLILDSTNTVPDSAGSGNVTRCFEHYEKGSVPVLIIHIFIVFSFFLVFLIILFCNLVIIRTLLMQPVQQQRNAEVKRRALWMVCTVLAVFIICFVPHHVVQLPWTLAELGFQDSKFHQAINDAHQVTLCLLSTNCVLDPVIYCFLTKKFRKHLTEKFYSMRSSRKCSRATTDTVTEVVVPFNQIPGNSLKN

IC50 [nM] | Compound
12 | Cc1nnc2n1-c1sc3c(c1C(c1ccccc1Cl)=NC21CC1)C[C@H](C(=O)NC1(C)CCOCC1)C3 [Example 45]
2 | Cc1nnc2n1-c1sc3c(c1C(c1ccccc1Cl)=NC21CC1)C[C@H](C(=O)NC1(c2ccccc2)CC1)C3 [Example 46]
1.6 | Cc1nnc2n1-c1sc3c(c1C(c1ccccc1Cl)=NC21CC1)C[C@H](C(=O)NC1CCC1(C)C)C3 (stereo partly shown) [Example 47]
6.7 | Cc1nnc2n1-c1sc3c(c1C(c1ccccc1Cl)=NC21CC1)C[C@H](C(=O)N(C)[C@@H]1CCOC1)C3 [Example 48]
7.7 | Cc1nnc2n1-c1sc3c(c1C(c1ccccc1Cl)=NC21CC1)C[C@H](C(=O)N[C@H]1C[C@H](C#N)C1)C3 [Example 49]
2.4 | Cc1nnc2n1-c1sc3c(c1C(c1ccccc1Cl)=NC21CC1)C[C@H](C(=O)N[C@@H]1c2ccccc2C[C@@H]1O)C3 [Example 50]
12 | Cc1nnc2n1-c1sc3c(c1C(c1ccccc1Cl)=NC21CC1)C[C@H](C(=O)NC1CCOCC1)C3 [Example 51]
1.8 | Cc1nnc2n1-c1sc3c(c1C(c1ccccc1Cl)=NC21CC1)C[C@H](C(=O)N[C@H]1CC[C@@H](C(F)(F)F)CC1)C3 [Example 52]
6.6 | Cc1nnc2n1-c1sc3c(c1C(c1ccccc1Cl)=NC21CC1)C[C@H](C(=O)NC1CCc2cnn(C)c2C1)C3 (stereo partly shown) [Example 54]
1.4 | Cc1nnc2n1-c1sc3c(c1C(c1ccccc1Cl)=NC21CC1)C[C@H](C(=O)NC1COc2ccccc21)C3 (stereo partly shown) [Example 55]
1.1 | Cc1nnc2n1-c1sc3c(c1C(c1ccccc1Cl)=NC21CC1)C[C@H](C(=O)NC1(c2cccc(F)c2)CC1)C3 [Example 56]
7.1 | CO[C@@H]1CC[C@H]1NC(=O)[C@@H]1Cc2sc3c(c2C1)C(c1ccccc1Cl)=NC1(CC1)c1nnc(C)n1-3 [Example 57]
1.6 | Cc1nnc2n1-c1sc3c(c1C(c1ccccc1Cl)=NC21CC1)C[C@H](C(=O)NC1CCCCC1)C3 [Example 59]
1.3 | Cc1nnc2n1-c1sc3c(c1C(c1ccccc1Cl)=NC21CC1)C[C@H](C(=O)N[C@@H]1C[C@H]1c1ccccc1)C3 [Example 60]
6.5 | Cc1nnc2n1-c1sc3c(c1C(c1ccccc1Cl)=NC21CC1)C[C@H](C(=O)N[C@H]1CCN(c2ncccn2)C1)C3 [Example 62]
1.7 | Cc1nnc2n1-c1sc3c(c1C(c1ccccc1Cl)=NC21CC1)C[C@H](C(=O)N[C@@H]1CCc2cc(C#N)ccc21)C3 [Example 63]
8.6 | Cc1nnc2n1-c1sc3c(c1C(c1ccccc1Cl)=NC21CC1)C[C@H](C(=O)NC1CCC12CCOCC2)C3 (stereo partly shown) [Example 64]
2.8 | Cc1nnc2n1-c1sc3c(c1C(c1ccccc1Cl)=NC21CC1)C[C@H](C(=O)N1CC(C)(C)C1)C3 [Example 65]
2.4 | CCCNC(=O)[C@@H]1Cc2sc3c(c2C1)C(c1ccccc1Cl)=NC1(CC1)c1nnc(C)n1-3 [Example 66]
1.7 | Cc1nnc2n1-c1sc3c(c1C(c1ccccc1Cl)=NC21CC1)C[C@H](C(=O)NCCOC(F)(F)F)C3 [Example 67]
1.9 | Cc1nnc2n1-c1sc3c(c1C(c1ccccc1Cl)=NC21CC1)C[C@H](C(=O)NCC1CC1)C3 [Example 68]
1.5 | Cc1nnc2n1-c1sc3c(c1C(c1ccccc1Cl)=NC21CC1)C[C@H](C(=O)NC1CCC2(CC1)CC2)C3 [Example 69]
2.6 | Cc1nnc2n1-c1sc3c(c1C(c1ccccc1Cl)=NC21CC1)C[C@H](C(=O)N[C@H]1CC[C@@H](F)C1)C3 [Example 70]
3.9 | Cc1nnc2n1-c1sc3c(c1C(c1ccccc1Cl)=NC21CC1)C[C@H](C(=O)NC1(CO)CCCCC1)C3 [Example 71]
4.9 | CCOC(=O)N1CCC(N(C)C(=O)[C@@H]2Cc3sc4c(c3C2)C(c2ccccc2Cl)=NC2(CC2)c2nnc(C)n2-4)CC1 [Example 72]
21 | CC(=O)N1CCC(N(C)C(=O)[C@@H]2Cc3sc4c(c3C2)C(c2ccccc2Cl)=NC2(CC2)c2nnc(C)n2-4)CC1 [Example 73]
5.5 | Cc1nnc2n1-c1sc3c(c1C(c1ccccc1Cl)=NC21CC1)C[C@H](C(=O)NC1CC1)C3 [Example 74]

IC50 [nM] | Compound
1.5 | Cc1nnc2n1-c1sc3c(c1C(c1ccccc1Cl)=NC21CC1)C[C@H](C(=O)N(C)C1CCCCCC1)C3 [Example 75]
1.9 | Cc1nnc2n1-c1sc3c(c1C(c1ccccc1Cl)=NC21CC1)C[C@H](C(=O)N[C@H]1CC[C@H](C(F)F)CC1)C3 [Example 76]
10 | Cc1nnc2n1-c1sc3c(c1C(c1ccccc1Cl)=NC21CC1)C[C@H](C(=O)NC1CCn2nccc2C1)C3 (stereo partly shown) [Example 77]
15 | Cc1nnc2n1-c1sc3c(c1C(c1ccccc1Cl)=NC21CC1)C[C@H](C(=O)N[C@H]1CCOC1)C3 [Example 78]
2 | Cc1nnc2n1-c1sc3c(c1C(c1ccccc1Cl)=NC21CC1)C[C@H](C(=O)NC1CC2(CCC2)C1)C3 [Example 80]
3.6 | CCN(C(=O)[C@@H]1Cc2sc3c(c2C1)C(c1ccccc1Cl)=NC1(CC1)c1nnc(C)n1-3)[C@@H]1c2ccccc2C[C@H]1O [Example 81]
1.5 | Cc1nnc2n1-c1sc3c(c1C(c1ccccc1Cl)=NC21CC1)C[C@H](C(=O)N[C@H]1CCc2ccccc21)C3 [Example 82]
6.9 | CCN(C(=O)[C@@H]1Cc2sc3c(c2C1)C(c1ccccc1Cl)=NC1(CC1)c1nnc(C)n1-3)C1CCOCC1 [Example 83]
2.3 | CO[C@@H]1CCCCC1N(C)C(=O)[C@@H]1Cc2sc3c(c2C1)C(c1ccccc1Cl)=NC1(CC1)c1nnc(C)n1-3 (stereo partly shown) [Example 84]
3.9 | COc1cc(C2(NC(=O)[C@@H]3Cc4sc5c(c4C3)C(c3ccccc3Cl)=NC3(CC3)c3nnc(C)n3-5)CC2)ccn1 [Example 85]
4 | Cc1nnc2n1-c1sc3c(c1C(c1ccccc1Cl)=NC21CC1)C[C@H](C(=O)N(C)[C@H]1c2ccccc2CC[C@@H]1O)C3 [Example 86]
4.9 | Cc1nnc2n1-c1sc3c(c1C(c1ccccc1Cl)=NC21CC1)C[C@H](C(=O)NC1(c2ccccn2)CC1)C3 [Example 87]
5.1 | Cc1nnc2n1-c1sc3c(c1C(c1ccccc1Cl)=NC21CC1)C[C@H](C(=O)N[C@H]1COC[C@H]1C(C)C)C3 [Example 88]
15 | Cc1nnc2n1-c1sc3c(c1C(c1ccccc1Cl)=NC21CC1)C[C@H](C(=O)N(C)C1CCS(=O)(=O)C1)C3 (stereo partly shown) [Example 89]
8.8 | Cc1nnc2n1-c1sc3c(c1C(c1ccccc1Cl)=NC21CC1)C[C@H](C(=O)NC1CC2CCC(C1)O2)C3 (stereo partly shown) [Example 90]
1.5 | CCN(C(=O)[C@@H]1Cc2sc3c(c2C1)C(c1ccccc1Cl)=NC1(CC1)c1nnc(C)n1-3)C1CCCCC1 [Example 91]
0.9 | Cc1nnc2n1-c1sc3c(c1C(c1ccccc1Cl)=NC21CC1)C[C@H](C(=O)N[C@H]1CCc2c(F)cccc21)C3 [Example 92]
5.2 | Cc1nnc2n1-c1sc3c(c1C(c1ccccc1Cl)=NC21CC1)C[C@H](C(=O)N[C@H]1C[C@H]2OCCC[C@@H]12)C3 [Example 93]
6.4 | Cc1nnc2n1-c1sc3c(c1C(c1ccccc1Cl)=NC21CC1)C[C@H](C(=O)NC1CCC(C)(C)OC1)C3 (stereo partly shown) [Example 94]
17 | Cc1nnc2n1-c1sc3c(c1C(c1ccccc1Cl)=NC21CC1)C[C@H](C(=O)N[C@@H]1CCOC1)C3 [Example 95]
6 | Cc1nnc2n1-c1sc3c(c1C(c1ccccc1Cl)=NC21CC1)C[C@H](C(=O)NC1(c2ccccc2)CCOCC1)C3 [Example 96]
8.9 | Cc1nnc2n1-c1sc3c(c1C(c1ccccc1Cl)=NC21CC1)C[C@H](C(=O)NC1CCc2ncccc2C1)C3 (stereo partly shown) [Example 97]
9.1 | Cc1nnc2n1-c1sc3c(c1C(c1ccccc1Cl)=NC21CC1)C[C@H](C(=O)N[C@H]1CC[C@H](C(C)(C)O)CC1)C3 [Example 98]
8.1 | CCn1ncc2c1CC[C@@H](NC(=O)[C@@H]1Cc3sc4c(c3C1)C(c1ccccc1Cl)=NC1(CC1)c1nnc(C)n1-4)C2 [Example 99]
22 | CCn1ncc2c1CC[C@H](NC(=O)[C@@H]1Cc3sc4c(c3C1)C(c1ccccc1Cl)=NC1(CC1)c1nnc(C)n1-4)C2 [Example 100]
6 | CC[C@@H]1C[C@H]2O[C@@H]1C[C@H]2NC(=O)[C@@H]1Cc2sc3c(c2C1)C(c1ccccc1Cl)=NC1(CC1)c1nnc(C)n1-3 [Example 101]

Compound | IC50 [nM]
Cc1nnc2n1-c1sc3c(c1C(c1ccccc1Cl)=NC21CC1)C[C@H](C(=O)N[C@H]1CCc2cccc(F)c21)C3 [Example 53] | 0.5
Cc1nnc2n1-c1sc3c(c1C(c1ccccc1Cl)=NC21CC1)C[C@H](C(=O)N[C@H]1CCc2ccccc2C1)C3 [Example 58] | 0.4
Cc1nnc2n1-c1sc3c(c1C(c1ccccc1Cl)=NC21CC1)C[C@H](C(=O)NC1CCc2cc(F)ccc21)C3 (stereo partly shown) [Example 61] | 0.6
Cc1nnc2n1-c1sc3c(c1C(c1ccccc1Cl)=NC21CC1)C[C@H](C(=O)N(C)C1CCC(C)(C)CC1)C3 [Example 79] | 0.9

Same assay, conditions: dedicated head-to-head comparison assay run: cyclopropylene vs di-methyl / cyclobutylene analogues

IC50 [nM] | Compound
9.7 | Cc1nnc2n1-c1sc3c(c1C(c1ccccc1Cl)=NC21CC1)C[C@H](C(=O)NC1CCOCC1)C3 [Example 51]
2.3 | CCCNC(=O)[C@@H]1Cc2sc3c(c2C1)C(c1ccccc1Cl)=NC1(CC1)c1nnc(C)n1-3 [Example 66]
5.6 | Cc1nnc2n1-c1sc3c(c1C(c1ccccc1Cl)=NC21CC1)C[C@H](C(=O)NC1(c2ccccn2)CC1)C3 [Example 87]

Compound | IC50 [nM]
Cc1nnc2n1-c1sc3c(c1C(c1ccccc1Cl)=NC21CC1)C[C@H](C(=O)NC1CCc2cc(F)ccc21)C3 (stereo partly shown) [Example 61] | 1.1
